From patent publication US8445474B2 (Knopp Neurosciences, Inc., priority 2006, dated 2013)

Columns and labels:
[1] = molecular target: human cloned dopamine receptor D2L (Homo sapiens, UniProt P14416); conditions: R(+) versus S(−)
Experimental: (§1) Eight concentrations were tested: 50 nM, 100 nM, 500 nM, 1 μM, 5 μM, 10 μM, 50 μM, 100 μM. These concentrations were tested in either CHO (Chinese hamster ovary) or HEK293 (human embryonic kidney) cell lines expressing human cloned dopamine receptors (D1, D2S, D2L, D3, D4, D5). The radio-ligand in each case was either [^3H] spiperone or [^3H] SCH23390 (a classic D1 dopamine receptor antagonist R-(+)-7-Chloro-8-hydroxy-3-methyl-1-phenyl-2,3,4,5-tetrahydro-1H-3-benzazepine hydrochloride), both antagonists at 0.3 nM. Incubation was for 60 minutes, and data were collected for 2 repeats using scintillation counting.

[2] = molecular target: human cloned dopamine receptor D2S (Homo sapiens, UniProt P14416); conditions: R(+) versus S(−)
Experimental: as §1

[3] = molecular target: human cloned dopamine receptor D3 (Homo sapiens, UniProt P35462); test: biochemical
Experimental: as §1

[4] = molecular target: human cloned dopamine receptor D5 (Homo sapiens, UniProt P21918); test: biochemical
Experimental: as §1

[5] = Dissolution of exploratory combination capsules in simulated gastric fluid (SGF), chiral HPLC; assay type: physicochemical; conditions: for Average Concentrations of the enantiomer, Experiments SGF (1) and SGF (2) / Concentration of the enantiomer in SGF (1) Vessel / Concentration of the enantiomer in SGF (2) Vessel: combination capsule in 10 mL SGF pH 1.2
Experimental: Drug Formulation. […] Normal phase, chiral HPLC was used for monitoring the release of R(+) pramipexole and S(−) pramipexole in simulated gastric fluid (SGF).
Dissolution Study. SGF (pH=1.2) was prepared by diluting 1 g of sodium chloride and 7 mL of concentrated HCl to 1 L with HPLC grade water. The dissolution experiment was run as follows: an exploratory combination capsule was placed in 10 mL of SGF and shaken under ambient conditions at 600 RPM for 60 minutes. Aliquots of 100 μL were pulled from the same sample vessel at various time points. The 100 μL samples of SGF solution were evaporated using a nitrogen bleed and heat and the residues were dissolved in the HPLC diluent and filtered through 0.45 μm syringe filters. […] This experiment was performed in duplicate (experiment numbers SGF (1) (see Table 4) and SGF (2) (see Table 5)) and the results are also provided in average values (see Table 6). The tables and figures below summarize the results from these experiments.

dopamine receptors = conditions: present data
[6] = 4320 minutes, stored benchtop in clear vial
[7] = non-naïve male beagle dogs, single oral dose

Chain of human cloned dopamine receptor D3 (P35462 whole entry): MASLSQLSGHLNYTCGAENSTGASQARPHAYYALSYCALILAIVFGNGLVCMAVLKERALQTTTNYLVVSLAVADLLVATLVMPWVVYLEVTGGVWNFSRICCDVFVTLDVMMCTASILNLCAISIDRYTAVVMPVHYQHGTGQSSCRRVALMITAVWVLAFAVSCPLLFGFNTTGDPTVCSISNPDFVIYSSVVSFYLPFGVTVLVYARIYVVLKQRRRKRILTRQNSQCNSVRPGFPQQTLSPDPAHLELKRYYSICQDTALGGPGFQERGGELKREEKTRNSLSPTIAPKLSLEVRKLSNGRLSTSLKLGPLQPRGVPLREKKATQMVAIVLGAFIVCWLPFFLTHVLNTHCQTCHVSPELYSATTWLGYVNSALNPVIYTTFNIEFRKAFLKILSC
Chain of human cloned dopamine receptor D5 (P21918 whole entry): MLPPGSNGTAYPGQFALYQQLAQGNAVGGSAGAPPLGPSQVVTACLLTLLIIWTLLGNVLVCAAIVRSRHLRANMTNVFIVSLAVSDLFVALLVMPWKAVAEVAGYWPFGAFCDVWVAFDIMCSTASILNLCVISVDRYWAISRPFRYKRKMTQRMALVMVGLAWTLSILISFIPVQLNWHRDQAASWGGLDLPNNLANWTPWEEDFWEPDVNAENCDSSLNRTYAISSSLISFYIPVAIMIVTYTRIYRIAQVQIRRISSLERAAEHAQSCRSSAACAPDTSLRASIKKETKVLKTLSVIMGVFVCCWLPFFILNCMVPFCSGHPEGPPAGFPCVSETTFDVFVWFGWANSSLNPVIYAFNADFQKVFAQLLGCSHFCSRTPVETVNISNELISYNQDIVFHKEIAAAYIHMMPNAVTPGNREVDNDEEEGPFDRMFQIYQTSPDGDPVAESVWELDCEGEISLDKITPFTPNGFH
Chain of human cloned dopamine receptor D2L (P14416 whole entry): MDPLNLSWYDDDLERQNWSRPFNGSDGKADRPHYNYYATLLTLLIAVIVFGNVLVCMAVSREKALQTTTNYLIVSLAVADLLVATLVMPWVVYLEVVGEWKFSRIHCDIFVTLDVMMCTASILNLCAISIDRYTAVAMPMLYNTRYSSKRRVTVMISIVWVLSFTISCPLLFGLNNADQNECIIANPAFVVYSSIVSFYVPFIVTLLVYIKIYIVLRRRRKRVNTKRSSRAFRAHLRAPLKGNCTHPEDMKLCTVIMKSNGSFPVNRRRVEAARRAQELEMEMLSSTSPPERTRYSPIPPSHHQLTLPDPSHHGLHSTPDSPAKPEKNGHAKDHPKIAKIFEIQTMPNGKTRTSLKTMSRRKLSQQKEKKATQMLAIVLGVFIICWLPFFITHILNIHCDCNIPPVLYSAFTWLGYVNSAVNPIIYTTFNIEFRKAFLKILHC
Chain of human cloned dopamine receptor D2S (P14416 1-414 isoform P14416-2): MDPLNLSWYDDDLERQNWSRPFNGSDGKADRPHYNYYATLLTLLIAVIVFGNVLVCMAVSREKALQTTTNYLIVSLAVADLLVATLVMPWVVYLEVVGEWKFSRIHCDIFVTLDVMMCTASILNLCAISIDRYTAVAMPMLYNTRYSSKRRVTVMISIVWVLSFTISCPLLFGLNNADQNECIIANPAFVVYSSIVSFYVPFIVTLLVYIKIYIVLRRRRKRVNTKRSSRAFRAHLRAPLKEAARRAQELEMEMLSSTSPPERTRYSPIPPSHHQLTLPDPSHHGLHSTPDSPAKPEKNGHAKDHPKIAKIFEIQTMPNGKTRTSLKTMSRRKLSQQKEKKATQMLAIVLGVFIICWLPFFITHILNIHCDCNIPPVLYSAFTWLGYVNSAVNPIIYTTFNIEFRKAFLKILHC
Experimental for male beagle dogs: Doses were administered orally by gavage and clinical observations were taken continuously following dosing: hourly for the first four hours, and then twice daily cage-side observations for the duration of the inter-dose or post-dose interval. Observations were made of clinical signs, mortality, injury and availability of food and water. Animals were fasted for 24 hr prior to dosing. Dogs in each group were exposed to only one drug, or the combination; each dose was administered only once, with a subsequent dose administered after a recovery period of 4 days.

CCCN[C@H]1CCc2nc(N)sc2C1 (single isomer, unassigned) [R(+) pramipexole]
lower affinity for the D2L receptor subtype than the S(−) enantiomer [1]: > 10,000 fold | lower affinity for the D2S receptor subtype than the S(−) enantiomer [2]: > 10,000 fold | IC50 [3]: 12 µM | Ki [3]: 2.7 µM | less affinity for the D3 receptor subtype than the S(−) enantiomer ([3]; R(+) versus S(−)): about 5,000 fold | IC50 [4]: > 100 µM | Ki [4]: > 100 µM | Average Concentrations of the enantiomer, Experiments SGF (1) and SGF (2) ([5]; 3 minutes): 0 mg/mL | Concentration of the enantiomer in SGF (1) Vessel ([5]; 3 minutes): 0 µg/mL | Concentration of the enantiomer in SGF (2) Vessel ([5]; 3 minutes): 0 µg/mL | Average Concentrations of the enantiomer, Experiments SGF (1) and SGF (2) ([5]; 4 minutes): 0.002035 mg/mL | Concentration of the enantiomer in SGF (1) Vessel ([5]; 4 minutes): 1.824 µg/mL | Concentration of the enantiomer in SGF (2) Vessel ([5]; 4 minutes): 2.245 µg/mL | Average Concentrations of the enantiomer, Experiments SGF (1) and SGF (2) ([5]; 6 minutes): 0.06814 mg/mL | Concentration of the enantiomer in SGF (1) Vessel ([5]; 6 minutes): 42.59 µg/mL | Concentration of the enantiomer in SGF (2) Vessel ([5]; 6 minutes): 93.7 µg/mL | Average Concentrations of the enantiomer, Experiments SGF (1) and SGF (2) ([5]; 8 minutes): 7.346 mg/mL | Concentration of the enantiomer in SGF (1) Vessel ([5]; 8 minutes): 6441 µg/mL | Concentration of the enantiomer in SGF (2) Vessel ([5]; 8 minutes): 8250 µg/mL | Average Concentrations of the enantiomer, Experiments SGF (1) and SGF (2) ([5]; 10 minutes): 8.615 mg/mL | Concentration of the enantiomer in SGF (1) Vessel ([5]; 10 minutes): 8443 µg/mL | Concentration of the enantiomer in SGF (2) Vessel ([5]; 10 minutes): 8787 µg/mL | Average Concentrations of the enantiomer, Experiments SGF (1) and SGF (2) ([5]; 11 minutes): 8.938 mg/mL | Concentration of the enantiomer in SGF (1) Vessel ([5]; 11 minutes): 8746 µg/mL | Concentration of the enantiomer in SGF (2) Vessel ([5]; 11 minutes): 9131 µg/mL | Average Concentrations of the enantiomer, Experiments SGF (1) and SGF (2) ([5]; 12 minutes): 8.927 mg/mL | Concentration of the enantiomer in SGF (1) Vessel ([5]; 12 minutes): 8767 µg/mL | Concentration of the enantiomer in SGF (2) Vessel ([5]; 12 minutes): 9086 µg/mL | Average Concentrations of the enantiomer, Experiments SGF (1) and SGF (2) ([5]; 14 minutes): 9.164 mg/mL | Concentration of the enantiomer in SGF (1) Vessel ([5]; 14 minutes): 9236 µg/mL | Concentration of the enantiomer in SGF (2) Vessel ([5]; 14 minutes): 9092 µg/mL | Average Concentrations of the enantiomer, Experiments SGF (1) and SGF (2) ([5]; 15 minutes): 9.463 mg/mL | Concentration of the enantiomer in SGF (1) Vessel ([5]; 15 minutes): 9510 µg/mL | Concentration of the enantiomer in SGF (2) Vessel ([5]; 15 minutes): 9416 µg/mL | Average Concentrations of the enantiomer, Experiments SGF (1) and SGF (2) ([5]; 17 minutes): 9.438 mg/mL | Concentration of the enantiomer in SGF (1) Vessel ([5]; 17 minutes): 9398 µg/mL | Concentration of the enantiomer in SGF (2) Vessel ([5]; 17 minutes): 9477 µg/mL | Average Concentrations of the enantiomer, Experiments SGF (1) and SGF (2) ([5]; 18 minutes): 9.258 mg/mL | Concentration of the enantiomer in SGF (1) Vessel ([5]; 18 minutes): 9127 µg/mL | Concentration of the enantiomer in SGF (2) Vessel ([5]; 18 minutes): 9390 µg/mL | Average Concentrations of the enantiomer, Experiments SGF (1) and SGF (2) ([5]; 20 minutes): 9.475 mg/mL | Concentration of the enantiomer in SGF (1) Vessel ([5]; 20 minutes): 9457 µg/mL | Concentration of the enantiomer in SGF (2) Vessel ([5]; 20 minutes): 9493 µg/mL | Average Concentrations of the enantiomer, Experiments SGF (1) and SGF (2) ([5]; 25 minutes): 9.61 mg/mL | Concentration of the enantiomer in SGF (1) Vessel ([5]; 25 minutes): 9579 µg/mL | Concentration of the enantiomer in SGF (2) Vessel ([5]; 25 minutes): 9641 µg/mL | Average Concentrations of the enantiomer, Experiments SGF (1) and SGF (2) ([5]; 30 minutes): 9.65 mg/mL | Concentration of the enantiomer in SGF (1) Vessel ([5]; 30 minutes): 9894 µg/mL | Concentration of the enantiomer in SGF (2) Vessel ([5]; 30 minutes): 9406 µg/mL | Average Concentrations of the enantiomer, Experiments SGF (1) and SGF (2) ([5]; 60 minutes): 9.127 mg/mL | Concentration of the enantiomer in SGF (1) Vessel ([5]; 60 minutes): 9530 µg/mL | Concentration of the enantiomer in SGF (2) Vessel ([5]; 60 minutes): 8725 µg/mL | Average Concentrations of the enantiomer, Experiments SGF (1) and SGF (2) [5, 6]: 4.163 mg/mL | Concentration of the enantiomer in SGF (1) Vessel [5, 6]: 3624 µg/mL | Concentration of the enantiomer in SGF (2) Vessel [5, 6]: 4702 µg/mL | course of release from the capsule ([5]; SGF pH 1.2, 60 minutes): leveled off after 11 minutes | cause of decrease in concentration at approximately 72 hours ([5]; SGF samples stored benchtop in a clear vial): light degradation | human dose equivalent to dog MTD (male beagle dogs; 70 kg individual): about 3,000 mg | MTD greater than for the S(−) enantiomer (male beagle dogs; non-naïve dogs): about 10,000 fold | NOAEL greater than for the S(−) enantiomer (male beagle dogs; non-naïve dogs): approximately 20,000 fold | MTD (male beagle dogs; [7]): 75 mg/kg | NOAEL (male beagle dogs; [7]): 25 mg/kg | less active as a dopamine agonist than the S(−) enantiomer (dopamine receptors): more than 5,000 fold
